Earlier results as cited in patent US20150231284A1, “MOLECULAR PROBE FOR IMAGING OF PANCREATIC ISLET AND THE PRECURSOR, AND USE OF THE SAME” (Kyoto University, priority 2009, published 2015).

Experiments:
[1] = tested on: GLP-1R-positive tumor cells; settings: Document 2; cited from earlier work
[2] = tested on: pancreatic islet cells; settings: Document 2; cited from earlier work

Lys^40(Ahx-DTPA-^111In)Exendin-4(9-39)
uptake in the GLP-1R-positive tumor cells [1]: about 7.5% | uptake in pancreatic islets [2]: about 0.4%
